No end group written: not given here.
Tests used:
Experiment in all cases: biochemical
Format in all cases: binding
[1] = biological target: HLA-A11 (A*1101) (Homo sapiens, UniProt P04439, A114D/D185E/E176A/F33Y/L180Q/S129P/T187R)
[2] = biological target: A31 (A*3101) (Homo sapiens, UniProt P04439, A270S/D185E/E176V/E277Q/F33T/G231S/G80R/H175R/I121M/I218V/I322F/K168Q/L300P/L318F/M331R/P217A/Q94H/R138Q/T323A/T345S/T97I/V358M)
[3] = biological target: A*3301 (Homo sapiens, UniProt P04439, A270S/D185E/E176V/E277Q/E87N/F33T/G231S/H175R/I121M/I218V/I322F/K168Q/K210R/L300P/L318F/M331R/P217A/Q86R/Q94H/R138Q/T323A/T345S/T97I/V358M/Y195H)
[4] = biological target: A*6801 (Homo sapiens, UniProt P04439, A269V/D185E/E176V/E277Q/E87N/F33Y/G231S/I121M/I166T/I218V/L180W/L300P/L318F/N151K/P208A/P217A/Q86R/R169H/T345S)
[5] = biological target: HLA-A*0201 (HLA-A2.1) (Homo sapiens, UniProt P04439, D140Y/D185E/D98H/E176V/E277Q/G131W/G231S/I119V/I121R/I166T/I218V/L300P/L318F/N151K/N90K/P208A/P217A/Q86G/Q94H/R138H/R169H/T345S)

Compound	IC50 [1] [nM]	IC50 [2] [nM]	IC50 [3] [nM]	IC50 [4] [nM]	also measured
CC(C)C[C@H](NC(=O)[C@H](CCCNC(=N)N)NC(=O)[C@H](CCC(=O)O)NC(=O)[C@H](CCC(N)=O)NC(=O)[C@H](CCCNC(=N)N)NC(=O)[C@H](C)NC(=O)[C@@H](N)CCCNC(=N)N)C(=O)N[C@@H](CCC(N)=O)C(=O)N[C@@H](CCCNC(=N)N)C(=O)O [Peptide 78.0311]	> 20000	350	> 20000	> 20000	–
CC(C)C[C@H](NC(=O)[C@H](CCCNC(=N)N)NC(=O)[C@H](Cc1ccccc1)NC(=O)CNC(=O)[C@@H](N)Cc1ccc(O)cc1)C(=O)NCC(=O)N[C@@H](Cc1ccccc1)C(=O)N[C@@H](CC(C)C)C(=O)N[C@@H](Cc1c[nH]cn1)C(=O)O [Peptide 1556.26]	19	3250	9910	–	–
AACWRSRRK [Peptide 88.0260]	–	–	> 20000	–	–
AIRKAILGHR [Peptide 9017.0223]	12600	25	1520	7730	–
ALQGLAQSR [Peptide 88.0398]	2760	311	> 20000	11300	–
AQVLHLLKR [Peptide 88.0364]	–	98	3780	19500	–
AQVLHVLKR [Peptide 88.0335]	79	–	64	6530	–
ATCALYWYR [Peptide 88.0371]	18	19	15	120	–
AVDLSFFLK [Peptide 73.0184]	–	–	> 20000	–	–
AVDLYHFLK [Peptide 940-06, reference compound]	–	–	–	–	active receptor [1]: 10%
AVHLCTETSK [Peptide 88.0230]	87	–	> 20000	10500	–
DFISFLSYFK [Peptide 88.0188]	30	2630	5.7	1.5	–
EFVSFLSALK [Peptide 1587.36]	–	–	17	22	–
EQMLIQPPK [Peptide 88.0378]	79	> 20000	831	732	–
ESKKKVESK [Peptide 9017.0082]	> 20000	> 20000	> 20000	250	–
FAFADLTVVY [Peptide 78.0115]	–	> 20000	> 20000	–	–
FVSFLSALK [Peptide 1587.37]	8.8	4370	–	13	–
FVVYRDSIPK [Peptide 88.0026]	–	–	–	10	–
GILRQRRAR [Peptide 9017.0114]	672	177	3190	1480	–
GLVFGILIKR [Peptide 9012.0244]	489	2110	2640	–	–
GQVDYYGLYY [Peptide 1589.02]	53	5400	> 20000	> 20000	–
GQVNCKGIYY [Peptide 88.0209]	168	2760	> 20000	> 20000	–
GTGISYGRK [Peptide 66.0062]	–	> 20000	> 20000	–	–

Compound	IC50 [1] [nM]	IC50 [2] [nM]	IC50 [3] [nM]	IC50 [4] [nM]	also measured
GTRQARKNR [Peptide 9017.0071]	8350	24	5070	> 20000	–
GTTLEQQYNK [Peptide 78.0044]	69	> 20000	> 20000	3940	–
HLVPWDQLFR [Peptide 9012.0236]	–	308	–	21	–
ILWKDIFHR [Peptide 9012.0201]	–	6.4	4.8	235	–
ITIEKLLEK [Peptide 1587.31]	14	–	11000	16	–
IVIKRRQQK [Peptide 9012.0206]	–	712	9110	3300	–
IVKETELRK [Peptide 9012.0209]	–	> 20000	> 20000	1730	–
IVVSAELPK [Peptide 1556.19]	93	> 20000	> 20000	218	–
IVYRDNNPY [Peptide 78.0292]	18	> 20000	> 20000	–	–
KAGPGGYPRK [Peptide 73.0334]	–	–	> 20000	–	–
KGLGISYGR [Peptide 1577.30]	415	1.4	> 20000	> 20000	–
KISEYRHYNK [Peptide 88.0110]	–	–	> 20000	–	–
KISEYRHYQY [Peptide 1571.14]	392	7220	> 20000	11700	–
KQGAMLAVFK [Peptide 88.0142]	–	519	> 20000	235	–
KQSRAAKRR [Peptide 88.0325]	18800	–	512	1120	–
KTLGISYGRK [Peptide 66.0073]	–	–	> 20000	–	–
KTLGISYGRKK [Peptide 66.0090]	–	–	> 20000	–	–
KVGPGGYPRRK [Peptide 73.0336]	–	–	> 20000	–	–
KVGSLQYLK [Peptide 66.0057]	–	–	> 20000	–	–
LALTALIKPK [Peptide 9017.0227]	34	–	> 20000	3480	–
LQHASTSTPK [Peptide 88.0224]	20	5820	> 20000	–	–
LVYRDDFPK [Peptide 88.0280]	–	–	–	110	–
MSFLTALKR [Peptide 1587.11]	26	49	–	2.4	–

Compound	IC50 [1] [nM]	IC50 [2] [nM]	IC50 [3] [nM]	IC50 [4] [nM]	also measured
QQLLRREVY [Peptide E6-42]	–	–	–	–	binding class for HLA-A11.2 [1]: weak affinity
QQQMFLGTVK [Peptide 88.0219]	13	–	> 20000	1460	–
RQLKETELRK [Peptide 9012.0249]	–	> 20000	12600	> 20000	–
RQRKIDWLIK [Peptide 9017.0247]	–	95	> 20000	> 20000	–
RTEVYQFAFK [Peptide 78.0062]	–	1690	9180	3310	–
SJPPPGTRV [Peptide 1345.03]	–	–	–	–	A*0201 [5]: 0.0545
SLFRAVITKKV	–	–	–	–	binding to HLA-A2.1 (column 3; no allele head shown for these rows) [5]: 0.0001
SLFRAVITKKVADLV	–	–	–	–	binding to HLA-A2.1 (column 3; no allele head shown for these rows) [5]: 0.0004
SLHCKPEEAL	–	–	–	–	A2.1 [5]: 0.0002
SLRVLAAGL	–	–	–	–	A2.1 [5]: 0.0001
SLSAYIIRV [Peptide 1577.43]	–	–	–	–	IC50 [5]: 40 nM
SQIQYWQLIR [Peptide 88.0199]	84	219	7540	–	–
SREEEGPST	–	–	–	–	A2.1 [5]: <0.0002
STSCILESL	–	–	–	–	binding to HLA-A2.1 (column 3; no allele head shown for these rows) [5]: 0.0002
TFPHAFPFDK [Peptide 88.0176]	–	4960	> 20000	200	–
TLEEVPTA	–	–	–	–	A2.1 [5]: 0
TTYAEPPK [Peptide 1556.11]	–	> 20000	> 20000	320	–
TVTYSPALNK [Peptide 1556.40]	–	> 20000	> 20000	165	–
TVYAEPPR [Peptide 1556.10]	–	8410	11800	21	–
VIFSKASSSL	–	–	–	–	A2.1 [5]: 0
VITKKVADL	–	–	–	–	A2.1 [5]: <0.0003
VITKKVADLV	–	–	–	–	A2.1 [5]: 0
VLEYVIKVSA	–	–	–	–	binding to HLA-A2.1 (column 3; no allele head shown for these rows) [5]: 0.0002

Compound	IC50 [1] [nM]	IC50 [2] [nM]	IC50 [3] [nM]	IC50 [4] [nM]	also measured
VLGTLEEVPT	–	–	–	–	binding to HLA-A2.1 (column 3; no allele head shown for these rows) [5]: 0.0004
VLGTLEEVPTA	–	–	–	–	binding to HLA-A2.1 (column 3; no allele head shown for these rows) [5]: 0.0002
VLVTCLGLSYDGL	–	–	–	–	binding to HLA-A2.1 (column 3; no allele head shown for these rows) [5]: 0.0017
VMVTCLGLSV	–	–	–	–	binding to HLA-A2.1 (column 3; no allele head shown for these rows) [5]: 0.30
VPTAGSTDP	–	–	–	–	A2.1 [5]: <0.0002
VQAATSSSS	–	–	–	–	A2.1 [5]: <0.0002
VQEKYLEYG	–	–	–	–	A2.1 [5]: <0.0002
VQLDIQSTK [Peptide 78.0301]	216	–	> 20000	> 20000	–
VTCLGLSYD	–	–	–	–	A2.1 [5]: <0.0002
VTKAEMLESV	–	–	–	–	binding to HLA-A2.1 (column 3; no allele head shown for these rows) [5]: 0
VTKAEMLGSV	–	–	–	–	binding to HLA-A2.1 (column 3; no allele head shown for these rows) [5]: <0.0002
VVEVVPISHL	–	–	–	–	binding to HLA-A2.1 (column 3; no allele head shown for these rows) [5]: <0.0002
WTIVYIEYR [Peptide 9017.0117]	–	–	92	17	–
YIFATCLGL	–	–	–	–	A2.1 [5]: 0.018
YKHCFPEIF	–	–	–	–	A2.1 [5]: <0.0002
YLCNSSCMGGV [Peptide 1323.31]	–	–	–	–	A*0201 [5]: 0.2300
YLEYGRCRT	–	–	–	–	binding to HLA-A2.1 (column 3; no allele head shown for these rows) [5]: 0
YLEYGRCRTVI	–	–	–	–	binding to HLA-A2.1 (column 3; no allele head shown for these rows) [5]: 0.0006
YLIMVKBWMV [Peptide 1334.05]	–	–	–	–	A*0201 [5]: 0.6900
YMCNSSCMGGM [Peptide 1323.29]	–	–	–	–	A*0201 [5]: 0.0075
YMIMVKBWMI [Peptide 1334.04]	–	–	–	–	A*0201 [5]: 0.2700
YVKVLEYVI	–	–	–	–	binding to HLA-A2.1 (column 3; no allele head shown for these rows) [5]: 0.0002
